Experimental data as given in US20220064214A1, “NOVEL PEPTIDES AND USES THEREOF” (CENNA BIOSCIENCES INC., priority 2019, published 2022).
Ends that are not written are not given here.

Test: Metabolic stability of peptides in fresh human plasma (LC/MS/MS)
Format: in vitro ADME
Protocol: P8, 8M1, and 8M1D were generated according to Example 1 with purities ranging from 98.0% to 99.0%. A primary 1.00 mM stock solution was prepared in either acetonitrile or acetonitrile:water (1:1, v/v) for each peptide. A 0.200 mM working stock was made from the primary stock in acetonitrile:water (1:1, v/v), which was used for the reactions. The primary and working stock solutions were stored at −20° C. when not in use, and they were kept at room temperature for as short a time as possible when in use. Fresh human plasma were maintained by adding sodium heparin as an anticoagulant.
The incubation procedures started when 5.00 μL of 0.2 mM (working stock solutions) of different peptides were added to 0.995 mL of fresh human plasma in a 1.7-mL snap tube. After 3, 8 and 24 hours of incubation, duplicate 50.0 μL aliquots of plasma were removed and placed into extraction tubes containing 150 μL of methanol, which served to quench any reactions, and thus incubations were ended. For each time point, the aliquotes were immediately extracted by vortex mixing and centrifugation. Resulting supernates were stored in High-Performance Liquid Chromatography (HPLC) vials and analyzed by LC/MS/MS after all samples were extracted. Valacyclovir was used as a positive control.
LC/MS/MS analysis of the incubation solutions was conducted by initial separation of the test article peaks using chromatography prior to detection by the mass spectrometer. The LC/MS system was comprised of a HPLC coupled with a TQS-Micro or Quattro Premier (Waters, Milford, Mass.). The mobile phase was nebulized using heated nitrogen in a Z spray source/interface set to electrospray in positive ionization mode for the peptides. The ionized peptides were detected using Tandem Quadropole Mass Spectrometry (MS/MS). The data was acquired using MassLynx (Waters, Milford, Mass.).
HPLC for the peptides and Valacyclovir control were performed with no guard columns, with a flow rate at 0.3 mL/min, with column temperature at 40° C., and autosampler temperature at 10° C. The column for peptides was MacMod ACE 2 Excel C18PFP, 100×2.1-mm, 2.0 μm, and the column for the control was Waters Atlantis T3, 150×2.1-mm, 5.0 μm. The injection loop and volumn for peptides were 50.0 μL and 20.0 μL respectively, and the ones for controls were 20.0 μL and 2.00 μL. For the Mass Spectrometer for the peptides and the Valacyclovir control, the source temperature was set to be 150° C., desolvation temperature was set to be 350° C., and polarity was set to be positive mode of electrospray ionization. Other parameters in HPLC and Mass Spectrometer are shown in Table 2.1, Table 2.2 and Table 3 below.

stability in fresh human plasma (in words): relatively stable | % Remaining (fresh human plasma, 0 h incubation): 100% | remaining at 3 h, 1 µM (fresh human plasma, 3 h incubation): 115% | remaining at 8 h, 1 µM (fresh human plasma, 8 h incubation): 99.7% | remaining at 24 h, 1 µM (fresh human plasma, 24 h incubation): 72%
Substance: DEEEDEEL-OH [P8, DEEEDEEL, reference compound]
